Test results published in patent US7122337B2, “Method for determining calciotropic activity of a preparation of Padina pavonic algae” (Texinfine SA, priority 2001, dated 2006).

Legend:
human cell line G292 = experiment: Fixing of calcium by the osteoblast cell line G292; assay type: cell-based; parameters: Fixed calcium, Average: unit not given here; conditions: for Fixing the calcium (fixed calcium): G292, Example I, controls = 1,000
Procedure: (§1) More precisely, the process according to the invention consists of preparing a suspension of a human or animal osseous cell line, by adjusting the cellular density determined by turbidimetry or by calculating from a reference value, leaving to incubate for one to three days at 37° C. in the presence of carbon dioxide and of a complete culture medium (CCM), adding to some wells an agent inhibiting the fixing of calcium or a calciotropic hormone, and some extract to be titrated, eliminating the supernatants from the culture, rinsing out the wells with a rinsing medium without calcium or magnesium (P.B.S. for example) in such a way as to eliminate the non-fixed calcium from the culture medium, eliminating the supernatant fractions, and adjusting the volume of the dispersion with a fixed volume of mineral acid such as hydrochloric acid, sulphuric acid, phosphoric acid or perchloric acid or with any other product capable of destroying the extracellular matrix built up by the cells being cultured. […] NT-690.005.
(§2) The material to be tested is dosed on a cell culture. An analysis is carried out of the calcium fixed by the osseous cells. To do this, the calcium fixed by an osteoblastic cell line is dosed. In a non-limiting way, UMR 106 and G292, in the presence or not of deleterious agents such as the Inh-Ca and the IL-1 may be cited. The preparation to be analysed will also itself be tested, on the same cell line in the presence or not of agents such as Inh-Ca and IL-1.
In these same conditions, calcium fixed by the same cell line in the presence of estradiol is dosed and a calibration scale is produced, expressed in weight of estradiol This calibration scale ranges from 10^−3 to 10^−10 mol of estradiol or more frequently between 10^−7 and 10^−9 mol of estradiol. In this way, it is possible to establish a correlation between the activity of the extract of Padina and an active quantity of estradiol. We should stress that this comparison is made between the activity of estradiol directly on the cell culture with the active extract of Padina in the presence of deleterious agents such as an Inh-Ca or IL-1. So it is not a true weight comparison and it is proposed that the result should be expressed in Units of Activity (UA). A unit of activity is defined as the quantity of extract capable of increasing by 50% the quantity of calcium fixed by 400,000 cells cultivated for 48 hours in the presence of 1 ng of interleukin 1 per 1 ml well. The IL-1 can be replaced by another agent inhibiting the fixing of calcium at an equi-active dose.
The extracts of Padina have been described, in particular in the European patent application EP 0.655.250. The algae is then depleted after drying, by a hydrocarbonated solvent such as cyclohexane or acetone, the vegetable matter is separated, and the extracted product is filtered then evaporated until dry. A quantity of dry extract weighed precisely is then dissolved in ethanol. Determining its activity is the object of the present invention. In concrete terms, the process according to the invention consists of preparing a suspension of culture of the human cell line G292 (ECAC no. 901-110522), adjusting the cell density to 400,000 cells per ml of complete culture medium (CCM), supplemented by 10% of fetal calf serum. The cell suspension is distributed at the rate of 1 ml per well on plates of 24 wells. It is left to incubate overnight in an atmosphere of CO2 at 37°. The supernatants are separated then dilution is carried out by a new addition of CCM. An aliquot fraction of IL-1 is prepared and 5 μl of interleukin IL1 solution is added, namely 1 ng per well in the wells for the cells which receive only one inhibiting treatment per IL-1.
(§3) For each trial of solution to be titrated, 5 μl of solution of Padina extract is added. It is then left to incubate for the length of time necessary to carry out the trial, normally between 24 and 72 hours, and preferably 48 hours. […]

Osteoblasts = experiment: Fixing of calcium by osteoblasts (Example I); assay type: cell-based
Procedure: as §1
The extracts or powders of the algae Padina pavonica have the effect of stimulating biological activity (synthesis of proteins and glycoaminoglycanes) but also act to restore physiological functions such as the fixing of calcium by osteogenic cells. For this, the fixed calcium is dosed with a fixed cell line, such as for example the cell line UMR 106 or the line G 292, in the presence or not of deleterious agents such as inhibitors of the calcic canals and pro-inflammatory agents such as IL 1. Normal osteoblasts give good results, but their availability presents a problem. The preparation to be analysed is tested in parallel on the same cell line, in the presence or not of these same deleterious agents. The quantity of fixed calcium in relation to that obtained with the calciotropic agent and with those obtained in the presence of agents inhibiting the fixing of calcium are compared.
as §2, §3

[1] = calcic inhibitor alone, 10 μg, control 1.194
[2] = agent in the presence of IL-1, controls = 1,000

C=C[C@H]1C[N@@]2CC[C@H]1C[C@@H]2[C@@H](O)c1ccnc2ccccc12 [Cinchonine]
Fixed calcium, Average (human cell line G292; [1]): 0.059

COc1ccc(CCN(C)CCCC(C#N)(c2ccc(OC)c(OC)c2)C(C)C)cc1OC (stereo not shown) [Verap, Verapamil]
Fixed calcium, Average (human cell line G292; [1]): 0.383

C[C@]12CC[C@@H]3c4ccc(O)cc4CC[C@H]3[C@@H]1CC[C@@H]2O [Est, Estradiol]
Fixed calcium, Average (human cell line G292; Estradiol 10^−7 alone, control 1.194): 1.151
Fixed calcium, Average (human cell line G292; Estradiol 10^−8 alone, control 1.194): 1.115
Fixed calcium, Average (human cell line G292; Estradiol 10^−9 alone, control 1.194): 0.706
Fixed calcium, Average (human cell line G292; Estradiol + Cinchonine, control 1.194, Cinchonine 0.059): 0.357
Fixed calcium, Average (human cell line G292; Estradiol + IL-1, control 1.194, IL-1 0.315): 0.357
Fixed calcium, Average (human cell line G292; Estradiol + Verapamil, control 1.194, Verap 0.383): 0.373
Fixing the calcium (fixed calcium) (human cell line G292; agent alone): 2,648
Fixing the calcium (fixed calcium) (human cell line G292; agent in the presence of IL-1): 0,070
Fixing the calcium (fixed calcium) (Osteoblasts; agent alone, controls = 1,000): 1,843
Fixing the calcium (fixed calcium) (Osteoblasts; [2]): 0,200

C=C1CC[C@H](O)C/C1=C/C=C1\CCC[C@]2(C)[C@@H]([C@H](C)CCCC(C)C)CC[C@@H]12 [D3, Vitamin D3]
Fixing the calcium (fixed calcium) (human cell line G292; agent alone): 1,540
Fixing the calcium (fixed calcium) (human cell line G292; agent in the presence of IL-1): 0,070
Fixing the calcium (fixed calcium) (Osteoblasts; agent alone, controls = 1,000): 1,215
Fixing the calcium (fixed calcium) (Osteoblasts; [2]): 0,125
